The numbers were not newly measured in US12673067B2, “Methods, agents, and devices for local neuromodulation of autonomic nerves” (Tulavi Therapeutics, Inc., priority 2016, dated 2026), which cites them from elsewhere.

The target of one data set is FFA1 (Homo sapiens, UniProt O14842). Particulars: footnote b: insulin secretion/DMR assay.
The target in another data set is T1, FFA2 (Homo sapiens, UniProt O15552).
T1 sequence (O15552 1-330): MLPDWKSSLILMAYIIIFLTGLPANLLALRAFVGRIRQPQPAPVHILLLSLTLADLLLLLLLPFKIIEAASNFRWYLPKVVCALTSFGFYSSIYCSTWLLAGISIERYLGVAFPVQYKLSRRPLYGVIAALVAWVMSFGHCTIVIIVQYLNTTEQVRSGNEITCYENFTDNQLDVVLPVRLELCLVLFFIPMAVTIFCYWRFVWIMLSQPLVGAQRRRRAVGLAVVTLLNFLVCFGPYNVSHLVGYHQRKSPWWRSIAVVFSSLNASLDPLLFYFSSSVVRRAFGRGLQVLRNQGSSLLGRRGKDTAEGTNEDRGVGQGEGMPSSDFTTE

The next data set addresses T2, FFA3 (Homo sapiens, UniProt O14843).
T2 sequence (O14843 1-346): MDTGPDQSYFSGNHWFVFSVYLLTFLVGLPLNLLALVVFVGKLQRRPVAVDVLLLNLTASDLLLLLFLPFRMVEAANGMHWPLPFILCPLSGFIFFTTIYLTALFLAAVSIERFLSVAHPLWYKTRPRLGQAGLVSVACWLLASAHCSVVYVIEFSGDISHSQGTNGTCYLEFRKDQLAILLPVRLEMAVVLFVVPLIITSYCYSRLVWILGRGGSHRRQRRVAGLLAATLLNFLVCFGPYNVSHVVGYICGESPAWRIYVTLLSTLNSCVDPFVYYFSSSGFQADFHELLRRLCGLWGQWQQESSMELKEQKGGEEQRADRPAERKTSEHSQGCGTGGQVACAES

For another data set, the target named is T3, GPR120 (Homo sapiens, UniProt Q5NUL3).
T3 sequence (Q5NUL3 1-361): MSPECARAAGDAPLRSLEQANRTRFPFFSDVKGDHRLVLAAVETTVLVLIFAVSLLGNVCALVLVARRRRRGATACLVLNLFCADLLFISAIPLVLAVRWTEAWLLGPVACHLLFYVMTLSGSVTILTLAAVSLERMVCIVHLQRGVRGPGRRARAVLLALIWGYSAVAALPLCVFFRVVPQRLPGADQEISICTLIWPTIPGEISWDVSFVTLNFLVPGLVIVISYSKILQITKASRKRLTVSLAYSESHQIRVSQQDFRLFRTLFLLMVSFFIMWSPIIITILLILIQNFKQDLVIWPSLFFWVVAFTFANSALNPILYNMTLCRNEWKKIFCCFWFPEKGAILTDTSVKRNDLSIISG

Another data set addresses GPR40 (Homo sapiens, UniProt O14842). The settings on record: at 100 μM.

Chain of FFA1 (O14842 whole entry): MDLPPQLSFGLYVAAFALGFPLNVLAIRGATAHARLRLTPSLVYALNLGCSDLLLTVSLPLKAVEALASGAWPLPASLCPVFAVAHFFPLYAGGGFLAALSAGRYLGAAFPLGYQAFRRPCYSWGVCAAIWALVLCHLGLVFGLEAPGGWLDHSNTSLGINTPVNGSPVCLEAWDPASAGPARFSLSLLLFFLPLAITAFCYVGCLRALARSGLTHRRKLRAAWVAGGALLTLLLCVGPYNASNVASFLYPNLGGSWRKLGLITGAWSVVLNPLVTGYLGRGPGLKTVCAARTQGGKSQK
Chain of GPR40 (O14842 whole entry): as above

In the case of `Cc1ccccc1C#Cc1ccc(CCC(=O)O)cc1` [TUG424], the “FFA1 pEC50” value at FFA1 was 7.5^b. Also, the “activity at FFA2” value at FFA2 is “No activity at FFA2 and FFA3 reported (TUG424)”. In addition, on FFA3, the “activity at FFA3” value is “No activity at FFA2 and FFA3 reported (TUG424)”.

In the case of `CC(C)=CCC/C(C)=C/CC/C(C)=C/Cc1c(O)cc(C)c(C(=O)O)c1O` [Grifolic acid], the GPR120 agonism entry at GPR120 is on record as “Weak GPR120 partial agonist”. For the same compound, at GPR40, the GPR40 activity entry is “without GPR40 activity”.
